Assay results from the supplement of paper PMC10307832.

Experiments:
Experiment in all cases: relative viability (nuclei count vs DMSO), 5 days (fraction); higher = more cells survive
NCI-H2085 = test system: NCI-H2085
Method in brief: (§1)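 Values are medians from duplicate plates. Each reflects relative viability, defined as the nuclei count of treated wells over that of vehicle wells. Lung cancer cell lines in 1536-well plates were pin-tool dosed one day after seeding with one drug alone or with a fixed anchor-drug dose plus five library-drug doses (not always all listed) in √10 steps, then fixed, stained and imaged at 4× after 5 days.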

NCI-H1563 = test system: NCI-H1563
Method in brief: as §1

NCI-H1944 = test system: NCI-H1944
Method in brief: as §1

LU99A = test system: LU99A
Method in brief: as §1

HCC-827 = test system: HCC-827
Method in brief: as §1

EPLC-272H = test system: EPLC-272H
Method in brief: as §1

NCI-H2023 = test system: NCI-H2023
Method in brief: as §1

SK-MES-1 = test system: SK-MES-1
Method in brief: as §1

EMC-BAC-2 = test system: EMC-BAC-2
Method in brief: as §1

NCI-H2405 = test system: NCI-H2405
Method in brief: as §1

COR-L23 = test system: COR-L23
Method in brief: as §1

NCI-H2087 = test system: NCI-H2087
Method in brief: as §1

ChaGo-K-1 = test system: ChaGo-K-1
Method in brief: as §1

NCI-H838 = test system: NCI-H838
Method in brief: as §1

NCI-H1651 = test system: NCI-H1651
Method in brief: as §1

HCC-44 = test system: HCC-44
Method in brief: as §1

LCLC-103H = test system: LCLC-103H
Method in brief: as §1

NCI-H520 = test system: NCI-H520
Method in brief: as §1

NCI-H1793 = test system: NCI-H1793
Method in brief: as §1

NCI-H1395 = test system: NCI-H1395
Method in brief: as §1

NCI-H650 = test system: NCI-H650
Method in brief: as §1

H3255 = test system: H3255
Method in brief: as §1

COc1cc2nccc(Oc3ccc(NC(=O)Nc4cc(C)on4)c(Cl)c3)c2cc1OC [Tivozanib] + Nc1nc2[nH]cc(CCc3ccc(C(=O)N[C@@H](CCC(=O)O)C(=O)O)cc3)c2c(=O)[nH]1 [Pemetrexed] (partner 0.2 µM)
relative viability (NCI-H2085; first compound 0.005 µM): 0.925
relative viability (NCI-H2085; first compound 0.01581 µM): 0.964
relative viability (NCI-H2085; first compound 0.05 µM): 0.872
relative viability (NCI-H2085; first compound 0.1581 µM): 0.9
relative viability (NCI-H2085; first compound 0.5 µM): 0.899
relative viability (NCI-H1563; first compound 0.005 µM): 0.657
relative viability (NCI-H1563; first compound 0.01581 µM): 0.887
relative viability (NCI-H1563; first compound 0.05 µM): 0.698
relative viability (NCI-H1563; first compound 0.1581 µM): 0.594
relative viability (NCI-H1563; first compound 0.5 µM): 0.728
relative viability (NCI-H1944; first compound 0.005 µM): 0.545
relative viability (NCI-H1944; first compound 0.01581 µM): 0.568
relative viability (NCI-H1944; first compound 0.05 µM): 0.652
relative viability (NCI-H1944; first compound 0.1581 µM): 0.659
relative viability (NCI-H1944; first compound 0.5 µM): 0.611
relative viability (LU99A; first compound 0.005 µM): 0.161
relative viability (LU99A; first compound 0.01581 µM): 0.176
relative viability (LU99A; first compound 0.05 µM): 0.19
relative viability (LU99A; first compound 0.1581 µM): 0.22
relative viability (LU99A; first compound 0.5 µM): 0.193
relative viability (HCC-827; first compound 0.005 µM): 0.266
relative viability (HCC-827; first compound 0.01581 µM): 0.255
relative viability (HCC-827; first compound 0.05 µM): 0.242
relative viability (HCC-827; first compound 0.1581 µM): 0.259
relative viability (HCC-827; first compound 0.5 µM): 0.253
relative viability (EPLC-272H; first compound 0.005 µM): 0.337
relative viability (EPLC-272H; first compound 0.01581 µM): 0.317
relative viability (EPLC-272H; first compound 0.05 µM): 0.335
relative viability (EPLC-272H; first compound 0.1581 µM): 0.284
relative viability (EPLC-272H; first compound 0.5 µM): 0.288
relative viability (NCI-H2023; first compound 0.005 µM): 0.405
relative viability (NCI-H2023; first compound 0.01581 µM): 0.216
relative viability (NCI-H2023; first compound 0.05 µM): 0.255
relative viability (NCI-H2023; first compound 0.1581 µM): 0.224
relative viability (NCI-H2023; first compound 0.5 µM): 0.211
relative viability (SK-MES-1; first compound 0.005 µM): 0.89
relative viability (SK-MES-1; first compound 0.01581 µM): 0.956
relative viability (SK-MES-1; first compound 0.05 µM): 1.13
relative viability (SK-MES-1; first compound 0.1581 µM): 0.948
relative viability (SK-MES-1; first compound 0.5 µM): 0.994
relative viability (EMC-BAC-2; first compound 0.005 µM): 0.463
relative viability (EMC-BAC-2; first compound 0.01581 µM): 0.465
relative viability (EMC-BAC-2; first compound 0.05 µM): 0.431
relative viability (EMC-BAC-2; first compound 0.1581 µM): 0.507
relative viability (EMC-BAC-2; first compound 0.5 µM): 0.398
relative viability (NCI-H2405; first compound 0.005 µM): 1.05
relative viability (NCI-H2405; first compound 0.01581 µM): 1.13
relative viability (NCI-H2405; first compound 0.05 µM): 1.09
relative viability (NCI-H2405; first compound 0.1581 µM): 1.01
relative viability (NCI-H2405; first compound 0.5 µM): 0.792
relative viability (COR-L23; first compound 0.005 µM): 0.193
relative viability (COR-L23; first compound 0.01581 µM): 0.192
relative viability (COR-L23; first compound 0.05 µM): 0.203
relative viability (COR-L23; first compound 0.1581 µM): 0.206
relative viability (COR-L23; first compound 0.5 µM): 0.199
relative viability (NCI-H2087; first compound 0.005 µM): 0.654
relative viability (NCI-H2087; first compound 0.01581 µM): 0.696
relative viability (NCI-H2087; first compound 0.05 µM): 0.66
relative viability (NCI-H2087; first compound 0.1581 µM): 0.7
relative viability (NCI-H2087; first compound 0.5 µM): 0.653
relative viability (ChaGo-K-1; first compound 0.005 µM): 0.235
relative viability (ChaGo-K-1; first compound 0.01581 µM): 0.271
relative viability (ChaGo-K-1; first compound 0.05 µM): 0.253
relative viability (ChaGo-K-1; first compound 0.1581 µM): 0.273
relative viability (ChaGo-K-1; first compound 0.5 µM): 0.264
relative viability (NCI-H838; first compound 0.005 µM): 0.242
relative viability (NCI-H838; first compound 0.01581 µM): 0.253
relative viability (NCI-H838; first compound 0.05 µM): 0.252
relative viability (NCI-H838; first compound 0.1581 µM): 0.257
relative viability (NCI-H838; first compound 0.5 µM): 0.22
relative viability (NCI-H1651; first compound 0.005 µM): 0.54
relative viability (NCI-H1651; first compound 0.01581 µM): 0.52
relative viability (NCI-H1651; first compound 0.05 µM): 0.683
relative viability (NCI-H1651; first compound 0.1581 µM): 0.421
relative viability (NCI-H1651; first compound 0.5 µM): 0.574
relative viability (HCC-44; first compound 0.005 µM): 0.651
relative viability (HCC-44; first compound 0.01581 µM): 0.62
relative viability (HCC-44; first compound 0.05 µM): 0.687
relative viability (HCC-44; first compound 0.1581 µM): 0.802
relative viability (HCC-44; first compound 0.5 µM): 0.627
relative viability (LCLC-103H; first compound 0.005 µM): 0.453
relative viability (LCLC-103H; first compound 0.01581 µM): 0.508
relative viability (LCLC-103H; first compound 0.05 µM): 0.49
relative viability (LCLC-103H; first compound 0.1581 µM): 0.459
relative viability (LCLC-103H; first compound 0.5 µM): 0.46
relative viability (NCI-H520; first compound 0.005 µM): 0.525
relative viability (NCI-H520; first compound 0.01581 µM): 0.572
relative viability (NCI-H520; first compound 0.05 µM): 0.552
relative viability (NCI-H520; first compound 0.1581 µM): 0.579
relative viability (NCI-H520; first compound 0.5 µM): 0.61
relative viability (NCI-H1793; first compound 0.005 µM): 0.643
relative viability (NCI-H1793; first compound 0.01581 µM): 0.854
relative viability (NCI-H1793; first compound 0.05 µM): 1.04
relative viability (NCI-H1793; first compound 0.5 µM): 0.999
relative viability (NCI-H1395; first compound 0.005 µM): 0.89
relative viability (NCI-H1395; first compound 0.01581 µM): 1.02
relative viability (NCI-H1395; first compound 0.05 µM): 0.938
relative viability (NCI-H1395; first compound 0.1581 µM): 0.775
relative viability (NCI-H1395; first compound 0.5 µM): 0.579
relative viability (NCI-H650; first compound 0.005 µM): 0.892
relative viability (NCI-H650; first compound 0.01581 µM): 0.98
relative viability (NCI-H650; first compound 0.05 µM): 0.879
relative viability (NCI-H650; first compound 0.1581 µM): 0.679
relative viability (NCI-H650; first compound 0.5 µM): 0.734
relative viability (H3255; first compound 0.005 µM): 0.545
relative viability (H3255; first compound 0.01581 µM): 0.563
relative viability (H3255; first compound 0.05 µM): 0.583
relative viability (H3255; first compound 0.1581 µM): 0.55
relative viability (H3255; first compound 0.5 µM): 0.547
